From paper PMC8901636, “Preclinical studies of Flonoltinib Maleate, a novel JAK2/FLT3 inhibitor, in treatment of JAK2^V617F-induced myeloproliferative neoplasms” (Blood Cancer Journal, 2022)
Read-outs that look alike come from different tables or passages of the source.

What was measured:
Ba/F3-JAK2^V617F cells = test: Ba/F3-JAK2^V617F disease model; details: for inhibition of the spleen growth: 22 days, figure prints it with a minus sign over Spleen Weight (mg); for median survival: vehicle 25 days
Molm-13 = test: MTT assay for cell proliferation; format: cell-based; details: Homo sapiens, MOLM-13, 72 h, read-out: IC50(μM) ± SD, tumor cell proliferation
Experimental: For in vitro inhibition assays, cells were seeded in 96-well culture plates with a density of 15,000–20,000 cells/well after the cells reached 70–90% confluence. […] MTT (3-(4, 5-dimethylthiazol-2-yl)-2, 5-diphenyltetrazolium bromide) (Cat. No. 1334GR001; BioFroxx) assay was conducted in order to examine viability. The IC50 values were fitted using GraphPad Prism 7.0.

[1] = PK and tissue distribution after repeated oral administration in Ba/F3-EPOR-JAK2^V617F tumor-bearing mice; format: in vivo; details: BALB/c nude, mouse, oral, 30 mg/kg, repeated
[2] = brain, read-out: FM concentration, Brain
[3] = heart, read-out: FM concentration, Heart
[4] = intestine, read-out: FM concentration, Intestine
[5] = kidney, read-out: FM concentration, Kidney
[6] = liver, read-out: FM concentration, Liver
[7] = lung, read-out: FM concentration, Lung
[8] = muscle, read-out: FM concentration, Muscle

Cc1cnc(Nc2ccc(N3CCC(N(C)CCO)CC3)c(F)c2)nc1-c1cnn(C(C)C)c1 [FM, 2-((1-(2-fluoro-4-((4-(1-isopropyl-1H-pyrazol-4-yl)-5-methylpyrimidin-2-yl)amino)phenyl)piperidin-4-yl)(methyl)amino)ethan-1-ol]
inhibition of the spleen growth (Ba/F3-JAK2^V617F cells; 15 mg/kg bid p.o.): 72.56%
median survival (Ba/F3-JAK2^V617F cells; 15 mg/kg bid p.o.): 30 days
inhibition of the spleen growth (Ba/F3-JAK2^V617F cells; 30 mg/kg bid p.o.): 97.92%
median survival (Ba/F3-JAK2^V617F cells; 30 mg/kg bid p.o.): 31 days
body weight during treatment (Ba/F3-JAK2^V617F cells; any dose): no obvious body weight decrease
IC50 (Molm-13): 0.06 ± 0.03 µM
concentration at 0 h [1, 2]: 6.3 ± 3.68 ng/g
concentration at 0.5 h [1, 2]: 283 ± 93.8 ng/g
concentration at 2 h [1, 2]: 369 ± 113 ng/g
concentration at 4 h [1, 2]: 492 ± 754 ng/g
concentration at 8 h [1, 2]: 47 ± 31.3 ng/g
concentration at 12 h [1, 2]: 10.8 ± 4.65 ng/g
concentration at 0 h [1, 3]: 7.06 ± 1.49 ng/g
concentration at 0.5 h [1, 3]: 1890 ± 756 ng/g
concentration at 2 h [1, 3]: 1320 ± 674 ng/g
concentration at 4 h [1, 3]: 578 ± 356 ng/g
concentration at 8 h [1, 3]: 357 ± 376 ng/g
concentration at 12 h [1, 3]: 15.8 ± 11.3 ng/g
concentration at 0 h [1, 4]: 21.4 ± 19.1 ng/g
concentration at 0.5 h [1, 4]: 31200 ± 12600 ng/g
concentration at 2 h [1, 4]: 4210 ± 1320 ng/g
concentration at 4 h [1, 4]: 9610 ± 6020 ng/g
concentration at 8 h [1, 4]: 1380 ± 1370 ng/g
concentration at 12 h [1, 4]: 250 ± 337 ng/g
concentration at 0 h [1, 5]: 16.6 ± 1.41 ng/g
concentration at 0.5 h [1, 5]: 11800 ± 3010 ng/g
concentration at 2 h [1, 5]: 7560 ± 1990 ng/g
concentration at 4 h [1, 5]: 4640 ± 1860 ng/g
concentration at 8 h [1, 5]: 1790 ± 1450 ng/g
concentration at 12 h [1, 5]: 174 ± 121 ng/g
concentration at 0 h [1, 6]: 12.9 ± 3.13 ng/g
concentration at 0.5 h [1, 6]: 4360 ± 3900 ng/g
concentration at 2 h [1, 6]: 6420 ± 1260 ng/g
concentration at 4 h [1, 6]: 6660 ± 5810 ng/g
concentration at 8 h [1, 6]: 1900 ± 1330 ng/g
concentration at 12 h [1, 6]: 151 ± 116 ng/g
concentration at 0 h [1, 7]: 18.5 ± 4 ng/g
concentration at 0.5 h [1, 7]: 11400 ± 1780 ng/g
concentration at 2 h [1, 7]: 7150 ± 1880 ng/g
concentration at 4 h [1, 7]: 3890 ± 1470 ng/g
concentration at 8 h [1, 7]: 1450 ± 1430 ng/g
concentration at 12 h [1, 7]: 132 ± 76.7 ng/g
concentration at 0 h [1, 8]: 18.6 ± 11.7 ng/g
concentration at 0.5 h [1, 8]: 415 ± 435 ng/g
concentration at 2 h [1, 8]: 275 ± 158 ng/g
concentration at 4 h [1, 8]: 181 ± 120 ng/g
concentration at 8 h [1, 8]: 85 ± 73.1 ng/g
concentration at 12 h [1, 8]: 13.3 ± 6.38 ng/g
concentration at 0 h ([1]; plasma, read-out: FM concentration, Plasma): 5.6 ± 1.53 ng/mL
concentration at 0.25 h ([1]; plasma, 0.25 h, read-out: FM concentration, Plasma): 628 ± 144 ng/mL
